From US12653192B2, “Pesticidal compositions” (SYNGENTA CROP PROTECTION AG, priority 2021, dated 2026)
Read-outs that look alike come from different tables or passages of the source.

Type: physicochemical
Description: The percentage amount of spiropidion remaining at each time interval during the high temperature storage testing was compared to an identical sample stored at −18° C. (100%=amount of spiropidion in the −18° C. sample at respective time interval).

Which results are given for `CCOC(=O)OC1=C(c2c(C)cc(Cl)cc2C)C(=O)N(C)C12CCN(OC)CC2` [Spiropidion, [3-(4-chloro-2,6-dimethyl-phenyl)-8-methoxy-1-methyl-2-oxo-1,8-diazaspiro[4.5]dec-3-en-4-yl]ethyl carbonate]?
chemical degradation of the active ingredient spiropidion: only minimal chemical degradation; % Spiropidion remaining (1 month): 99%; % Spiropidion remaining (12 months): 98%
